According to patent US7795305B2, “CDDO-compounds and combination therapies thereof” (Board of Regents, The University of Texas System, priority 2000, dated 2010):

How the values were obtained:
[1] = tested on: ERK immunoprecipitated from K562 cells; experiment: In vitro ERK (MAPK kinase) assay, MBP phosphorylation; assay type: biochemical; conditions: 0.1, 1, and 10 μM
Description: In vitro ERK assay. The effect of CDDO or CDDO-Me was determined using an in vitro MAPK kinase assay kit from Upstate Biotechnology (Lake Placid, N.Y.) and ERK1/2 antibody from Santa Cruz Biotechnology (Santa Cruz, Calif.). For each sample, ERK 1/2 was immunoprecipitated from 2×10^7 K562 or 1×10^7 HL60 cells using a specific anti-ERK 1/2 antibody and Protein A agarose (Life Technologies, Rockville, Md.). The ERK-containing agarose pellet was resuspended in Assay Buffer containing an inhibitor cocktail (PKC inhibitor peptide, PKA inhibitor peptide, and Compound R24571) to block possible contaminating non-ERK kinases. Where appropriate, varying concentrations (0.1, 1, and 10 μM) of CDDO or CDDO-Me was added. Dephosphorylated myelin basic protein (MBP; 25 μg) was used as substrate. Phosphorylation of MBP was observed by using an anti-phospho-MBP antibody. […] The amount of ERK2 immunoprecipitated from each sample was determined by using anti-ERK2 antibody.
To determine specific effects of CDDO-Me on ERK activity the inventors used an in vitro MAPK kinase assay kit. ERK was immunoprecipitated from K562 cells since these cells contain the Bcr-Abl kinase and activated ERK present in these cells under basal conditions.

HL-60 cells = experiment: Mitochondrial membrane potential (JC-1, CMXRos); assay type: cell-based, human; conditions: for cells with low CMXRos staining / cells with low JC-1: 1 μM
Description: Cytofluorometric analysis of the Δψm. To evaluate the Δψm, cells were incubated with the cationic lipophilic dye […] (CMXRos; 150 nM; Molecular Probes, Inc., Eugene, Oreg.). CMXRos is incorporated into mitochondria driven by the […] and reacts with thiol residues to form covalent thiol ester bonds. CMXRos fluorescence was recorded by flow cytometry in the FL3 channel. Background values of the apoptosis of control cells cultured without the CDDO-Me or in DMSO-solvent control (<10% CMXRos-low) were subtracted from the values obtained under the experimental conditions.
In a series of experiments, cells were pretreated for 1 hour with 50 μM CyA or 50 μM BA prior to the addition of CDDO-Me. These agents prevent a reduction in Δψm induced by various agents that open mitochondrial permeability transition pores.
An early mitochondrial disruption has been observed in a number of different models of apoptosis. Changes in the cellular content of the cationic lipophilic fluorochrome CMXRos were determined by FACS analysis to measure loss of the mitochondrial membrane potential (Δψ) (Macho et al., 1996). […] Similarly, exposure of HL-60 to CDDO-Me (1 μM) for 2 and 4 hrs increased the number of cells with low JC-1 (57 and 60%) or CMXRos staining (46 and 57%), both assays measuring the decrease in Δψ. CDDO-Me-induced changes in the mitochondrial membrane potential of the cells preceded caspase activation and changes in the composition of the plasma membrane. In order to validate the role of the dissipation of Δψ in CDDO-treated cells the pharmacological inhibitors of permeability transition cyclosporin A (CyA) (Nicolli et al., 1996) (10 μM, Sandoz) and bongkrekic acid (BA) (Marchetti et al., 1996) (Calbiochem, Calif.) were used. […] The same effect was observed using BA (52% in CDDO-Me treated HL-60 cells, 23% when cells were pre-treated with BA).

Bcl-2 mRNA in NB4 cells = experiment: Bcl-2 mRNA by quantitative TaqMan PCR; assay type: cell-based, human; conditions: 72 hrs
Description: (§1) The effect of CDDO on the Bcl-2 mRNA expression was analyzed utilizing quantitative TaqMan PCR. In HL-60 cells, Bcl-2 mRNA decreased at 24 hrs and decreased further (>than 10-fold) at 72 hours; in NB4 cells, a small decrease of Bcl-2 mRNA (2-fold) was observed only at 72 hrs (FIG. 9).

[2] = tested on: Bcl-2 mRNA in HL-60 cells; experiment: Bcl-2 mRNA by quantitative TaqMan PCR; assay type: cell-based, human; conditions: 72 hours
Description: as §1

U937 cells = experiment: cells; assay type: cell-based, human
Description: Suspension culture of leukemic cells.
CDDO. The effect of CDDO on the survival of HL-60 and U937 leukemia cell lines is depicted in FIG. 1. A time- and dose-dependent decrease of HL-60 cells: at 48 hours, 10^−8 M, at 72 and 96 hours, 10^−9 M of CDDO reduced cell numbers by 50%. Viability of U937 cells was inhibited at 107 to 1018 at 48 hours. DNA fragmentation was measured to confirm that the cell death induced by CDDO was due to apoptosis on a sub G1 cell population by DNA/RNA flow cytometry (FIG. 2). The percentage of proliferating cells were analyzed by FCM.

| SMILES | MBP phosphorylation by ERK [1] | cells with low CMXRos staining (HL-60 cells; 2 hrs) [%] | cells with low JC-1 (HL-60 cells; 2 hrs) [%] | cells with low CMXRos staining (HL-60 cells; 4 hrs) [%] | cells with low JC-1 (HL-60 cells; 4 hrs) [%] | cells with Δψ loss (HL-60 cells; CDDO-Me alone) [%] | cells with Δψ loss (HL-60 cells; cells pre-treated with bongkrekic acid (BA)) [%] | decrease of Bcl-2 mRNA (Bcl-2 mRNA in NB4 cells) [fold] | decrease of Bcl-2 mRNA [2] [fold] | concentration at which viability of U937 cells was inhibited (U937 cells; 48 hours) | viability at 1 µM (U937 cells; Homo sapiens, U-937, 48 h, read-out: cells remaining viable) [%] | viability at 2 µM (U937 cells; Homo sapiens, U-937, read-out: viable cells) [%] |
| --- | --- | --- | --- | --- | --- | --- | --- | --- | --- | --- | --- | --- |
| COC(=O)[C@]12CCC(C)(C)C[C@H]1[C@H]1C(=O)C=C3[C@@]4(C)C=C(C#N)C(=O)C(C)(C)[C@@H]4CC[C@@]3(C)[C@]1(C)CC2 [CDDO-Me] | inhibited MBP phosphorylation in a dose-dependent manner | 46 | 57 | 57 | 60 | 52 | 23 | – | – | – | – | – |
| CC1(C)CCC2(C(=O)O)CCC3(C)C(C(=O)C=C4C5(C)C=C(C#N)C(=O)C(C)(C)C5CCC43C)C2C1 (stereo not drawn) [CDDO, 2-cyano-3,12-dioxoolen-1,9-dien-28-oic acid] | – | – | – | – | – | – | – | 2 | > 10 | 107 to 1018 | 44.7 | 30.2 |
